One data set is described as follows: clinical. Particulars: human.
Data set [1] addresses 5-hydroxytryptamine receptor 2A (Homo sapiens, UniProt P28223).
Description: Antagonist activity at 5HT2A receptor (unknown origin)
Data set [2] addresses T1, D(2) dopamine receptor (Homo sapiens, UniProt P14416).
Description: Antagonist activity at postsynaptic D2 receptor (unknown origin)
Data set [3] has as its target T1, D(2) dopamine receptor. The source holds these as a separate data set.
Description: Partial agonist activity at presynaptic D2 receptor (unknown origin)

T1 sequence (P14416 whole entry): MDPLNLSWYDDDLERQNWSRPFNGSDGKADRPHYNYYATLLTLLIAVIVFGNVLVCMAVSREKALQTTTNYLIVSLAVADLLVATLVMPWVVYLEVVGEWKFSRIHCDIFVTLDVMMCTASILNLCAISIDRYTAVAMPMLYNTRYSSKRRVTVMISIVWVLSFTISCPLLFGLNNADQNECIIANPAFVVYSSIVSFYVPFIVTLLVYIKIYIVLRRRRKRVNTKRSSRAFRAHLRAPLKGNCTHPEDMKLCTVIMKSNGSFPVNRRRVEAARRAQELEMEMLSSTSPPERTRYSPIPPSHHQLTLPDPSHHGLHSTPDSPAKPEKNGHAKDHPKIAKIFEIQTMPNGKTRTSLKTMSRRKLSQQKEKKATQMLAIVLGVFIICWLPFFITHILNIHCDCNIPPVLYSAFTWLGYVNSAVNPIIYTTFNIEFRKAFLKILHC
Chain of 5-hydroxytryptamine receptor 2A (P28223 whole entry): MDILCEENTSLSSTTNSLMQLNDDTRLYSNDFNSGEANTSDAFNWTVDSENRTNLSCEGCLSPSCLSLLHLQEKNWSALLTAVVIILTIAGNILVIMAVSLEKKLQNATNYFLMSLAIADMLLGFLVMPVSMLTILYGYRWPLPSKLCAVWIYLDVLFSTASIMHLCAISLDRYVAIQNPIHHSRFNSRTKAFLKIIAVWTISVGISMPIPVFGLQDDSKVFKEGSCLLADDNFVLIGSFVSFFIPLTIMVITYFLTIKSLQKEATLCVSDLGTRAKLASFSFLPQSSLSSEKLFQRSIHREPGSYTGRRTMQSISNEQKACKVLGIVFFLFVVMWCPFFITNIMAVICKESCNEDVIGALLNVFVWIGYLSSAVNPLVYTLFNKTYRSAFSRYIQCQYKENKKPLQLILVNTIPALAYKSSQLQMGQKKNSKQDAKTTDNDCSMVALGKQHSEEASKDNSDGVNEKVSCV

A word on the half-life: it is the time needed for the level to fall by half in the phase considered. The low end stands for fast loss, the high end for slow loss. Consider `CCn1c(=O)c2c(nc(/C=C/c3ccc(OC)c(OC)c3)n2C)n(CC)c1=O` [ISTRADEFYLLINE], for which the half-life in “clinical” is 64 h.

As usually defined, the IC50 is the concentration needed to halve the response being measured. Low values mean inhibition by little substance, high ones a need for much substance. As for `CN1CCN2c3c(cccc31)[C@@H]1CN(CCCC(=O)c3ccc(F)cc3)CC[C@@H]12` [LUMATEPERONE], the values for the IC50 (in data set [1]; at D(2) dopamine receptor [2]; on D(2) dopamine receptor [3]) were 0.54 nM, 3.2 nM and 4.1 nM, respectively.
